Data published in article PMC12535076, “Neurotherapeutic effects of Vutiglabridin as a Paraoxonase-2 modulator in preclinical models of Parkinson’s disease” (Molecular Neurodegeneration, 2025).
pIC50: −log10 of the molar value.

Columns and labels:
[1] = QWBA and plasma radioactivity after oral 14C-Vuti in rats; type: in vivo, Sprague-Dawley rat; settings: abstract statement; species not stated there
Experimental: Male 8-week-old Sprague Dawley rats (n = 5, 16 h fasted; Charles River Laboratories Japan Inc., Yokohama, Japan) were orally administered 10 mg/kg of ^14C-Vuti (equivalent to radioactivity of 3.7 MBq/kg, Glaceum Inc., Suwon, Korea). After 2, 6, and 24 h, each rat was euthanized by CO2 inhalation. The nasal cavity and anus were filled with 4% w/v sodium carboxymethyl cellulose, and the carcass was frozen in a dry ice-acetone mixture. […] The radioactivity was measured by the bio-imaging analyzer system (FUJIX-BAS2500, Fujifilm, Tokyo, Japan; resolution µm, gradation 256, sensitivity 10000, latitude 4), in which the radioactivity in organs was converted to the photo-stimulated luminescence per unit area (PSL/mm^2) minus the background radioactivity of the plastic standard samples. Tissue radioactivity in whole-body auto-radiograms was quantified by densitometry using an MCID image analysis software (v. 7.0, MCID Image Analysis Software Solutions for Life Sciences, Cambridge, UK). Radioactivity concentrations were expressed as ng equivalents of ^14C-Vuti per gram tissue (ng eq/g tissue). […]
For measuring the radioactive concentration in the plasma, blood (250 uL) was collected from the tail vein of the animals (n = 3) of the exact same conditions as the animals used for QWBA assay. […] Then the tissue to blood ratio was calculated. […]

[2] = tested on: SH-SY5Y human neuroblastoma cells; assay: Cell-based mitochondrial activity assays in MPP+-treated SH-SY5Y cells
Experimental: Human SH-SY5Y neuroblastoma cells (ATCC® (CRL-2266™; Manassas, VA, USA) were first cultured in Dulbecco’s Modified Eagle Medium (DMEM)/F12 supplemented with 10% fetal bovine serum (FBS), 100 U/mL penicillin, and 100 µg/mL streptomycin (complete media, CM) at 37 °C with 5% CO2. Cells (5 × 10^4 cells/well) then were cultured in 96-well plates for 24 h followed by incubation in serum-deficient media (SDM, culture media containing 0.5% FBS) for 16 h. […] The treated cells were harvested according to the purpose and analyzed.
A systemic cell-based mitochondrial function analysis system was established using SH-SY5Y cells in 96-well plates based on fluorescence detection methods as described previously. The assay system covers quantitative assays for methyl thiazyl tetrazolium-mitochondrial dehydrogenase activity (MTT), TMRE-based mitochondrial membrane potential (TMRE), ATP contents, and ROS of cells. Cells in black 96-well culture plate were incubated with 200 nM TMRE and 0.5 µM Hoechst 33,342 for 30 min at 37 °C in phenol red-free SDM, or with 1 µM CM-H2DCFDA or 5 µM MitoSOX and 0.5 µM Hoechst 33,342 for 1 h at 37 °C. Fluorescence intensities at 550 nm/580 nm for TMRE, at 510 nm/580 nm MitoSOX, or at 494 nm/522 nm for DCF-DA were normalized by Hoechst intensity at 355 nm/480 nm (Spectramax Gemini EM, Molecular Devices, Sunnyvale, CA, USA).
Endogenous OCR was measured in adherent SH-SY5Y cells using a Seahorse XF-24 Analyzer (Seahorse Bioscience, Billerica, MA, USA) following the manufacturer’s protocol with minor modifications. Briefly, OCR assays were performed using SH-SY5Y cells (5.0 × 10^3 cells/well) equilibrated in DMEM without sodium bicarbonate in XF-24 microplates. After measuring basal OCR for 3 min, oligomycin (1 µg/mL), carbonyl cyanide-p-trifluoromethoxyphenylhydrazone (FCCP) (0.3 µM), and rotenone (0.1 µM) were consecutively added into each well to reach their final working concentrations. The OCR was calculated from 3-min measurement cycles and normalized to cell number.

[3] = target: T1, MAO-B (Homo sapiens, UniProt P27338); assay: ROS Glo based MAO-B enzyme activity assay; type: biochemical; settings: read-out: IC50, MAO-B assay, ROS-Glo method
T1 sequence (P27338 1-520): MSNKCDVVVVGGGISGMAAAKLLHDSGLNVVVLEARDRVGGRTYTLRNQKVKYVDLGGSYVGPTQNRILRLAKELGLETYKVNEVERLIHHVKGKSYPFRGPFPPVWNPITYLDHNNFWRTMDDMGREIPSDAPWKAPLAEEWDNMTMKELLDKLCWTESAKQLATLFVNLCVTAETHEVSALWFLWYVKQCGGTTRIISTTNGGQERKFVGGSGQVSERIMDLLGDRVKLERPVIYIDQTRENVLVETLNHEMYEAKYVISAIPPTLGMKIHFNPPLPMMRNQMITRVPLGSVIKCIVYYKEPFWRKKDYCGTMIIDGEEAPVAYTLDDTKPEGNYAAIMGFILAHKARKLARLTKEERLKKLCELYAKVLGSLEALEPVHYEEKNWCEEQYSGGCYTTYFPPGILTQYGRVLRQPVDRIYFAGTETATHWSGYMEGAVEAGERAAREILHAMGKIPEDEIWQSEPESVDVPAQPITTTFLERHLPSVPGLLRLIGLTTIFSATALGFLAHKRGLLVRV
Experimental: An enzyme solution was prepared by diluting 10 µL of a 2.5 mg/mL MAO-A or MAO-B stock in 10 mL of 50 mM sodium phosphate buffer (pH 7.4). A substrate solution was prepared by diluting 200 µL of a 100 mM benzylamine (or tyramine) stock in 10 mL phosphate buffer to achieve a final concentration of 1 mM. For each 96-well plate experiment, 12.5 µL of a 1× H2O2 probe solution was added to 1 mL of the probe dilution buffer from the ROS Glo™ kit. Separately, 40 µL of cysteine and enhancer were diluted into 4 mL of Luciferin solution. In each well, 49 µL of the enzyme solution was dispensed, followed by 1 µL of the test compound, and incubated for 30 min. […] Next, 10 µL of the H2O2 probe solution was added and incubated for 15 min. […] Luminescence was subsequently recorded using a microplate luminescence reader (SpectraMax i3, Molecular Devices).

CCOc1ccc(C2COc3c(ccc4c3CCC(C)(C)O4)C2)c(O)c1 (stereo not drawn) [Vuti, Vutiglabridin]
duration of presence in the brain [1]: over 24 h
MPP+-induced reduction in OCR (basal respiration, ATP turnover rate, maximum respiratory capacity) ([2]; 1 mM MPP+ 20 h, then Vuti 1~100 nM 24 h, Seahorse XF-24): dose-dependently and significantly rescued
MPP+-induced mitochondrial damage (NADH dehydrogenase complex 1 activity, ATP content, DCF-DA ROS, MitoSOX superoxide) ([2]; 1 mM MPP+ 24 h, then Vuti 0~1 µM 24 h): significantly reversed
ATP production rates through glycolysis (GlycoATP) and mitochondria (mitoATP) ([2]; 1 mM MPP+, post-treatment with Vuti): normalized
concentration at which significant restoration of MPP+-induced damage was observed ([2]; SH-SY5Y, 1 mM MPP+): 1 nM
pIC50 [3]: 4.23
